Assays:
Assay type in all cases: biochemical
[1] = target: hFEN1 (Homo sapiens (Human), UniProt P39748); experiment: Enzymatic IC50 assay, FAM-labeled DNA oligomer substrate, fluorescence intensity (FEN1); conditions: hFEN1 70 pM, substrate 100 nM, reaction time 20 minutes, 23° C.
Outline: (§1)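 FEN1, EXO1 or XPG was preincubated 15 min with compound, then the FAM-labelled DNA oligomer substrate was added in Tris-HCl pH 8.0 with 10 mM MgCl2 at 23° C. FEN1 was 70 pM with 100 nM substrate for 20 min, EXO1 6 nM with 30 nM for 60 min, and XPG 100 nM with 100 nM for 120 min. Reactions were EDTA-stopped and read by fluorescence intensity.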

[2] = target: hEXO1, Isoform1 (Homo sapiens (Human), UniProt Q9UQ84); experiment: Enzymatic IC50 assay, FAM-labeled DNA oligomer substrate, fluorescence intensity (EXO1); conditions: hEXO1 6 nM, substrate 30 nM, reaction time 60 minutes, 23° C.
Sequence of hEXO1, Isoform1 (Q9UQ84 whole entry, canonical isoform): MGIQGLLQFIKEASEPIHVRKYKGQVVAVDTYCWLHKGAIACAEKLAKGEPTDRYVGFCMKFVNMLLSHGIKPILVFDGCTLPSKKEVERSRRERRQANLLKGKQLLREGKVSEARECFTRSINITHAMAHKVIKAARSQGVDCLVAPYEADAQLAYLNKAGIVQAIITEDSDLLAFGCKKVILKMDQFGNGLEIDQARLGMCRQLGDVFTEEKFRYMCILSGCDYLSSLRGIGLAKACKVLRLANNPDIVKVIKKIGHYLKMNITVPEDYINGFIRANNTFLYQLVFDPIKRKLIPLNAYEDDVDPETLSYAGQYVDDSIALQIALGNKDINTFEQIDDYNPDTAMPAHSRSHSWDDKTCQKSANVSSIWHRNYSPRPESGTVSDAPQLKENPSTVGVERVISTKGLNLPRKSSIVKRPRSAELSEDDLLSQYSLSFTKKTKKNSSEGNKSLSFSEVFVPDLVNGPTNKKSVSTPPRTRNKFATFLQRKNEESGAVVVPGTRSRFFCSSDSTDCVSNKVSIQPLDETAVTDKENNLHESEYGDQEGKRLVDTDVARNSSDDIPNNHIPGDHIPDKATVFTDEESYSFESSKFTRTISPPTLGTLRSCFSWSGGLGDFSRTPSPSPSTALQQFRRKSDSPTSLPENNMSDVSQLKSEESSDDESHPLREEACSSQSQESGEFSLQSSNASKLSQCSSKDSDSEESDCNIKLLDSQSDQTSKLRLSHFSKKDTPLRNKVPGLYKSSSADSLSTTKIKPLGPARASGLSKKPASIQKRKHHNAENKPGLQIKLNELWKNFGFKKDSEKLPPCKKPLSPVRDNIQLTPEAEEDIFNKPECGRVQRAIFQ
Outline: as §1

[3] = target: hXPG (Homo sapiens (Human), UniProt P28715); experiment: Enzymatic IC50 assay, FAM-labeled DNA oligomer substrate, fluorescence intensity (XPG); conditions: hXPG 100 nM, substrate 100 nM, reaction time 120 minutes, 23° C.
Sequence of hXPG (P28715 whole entry): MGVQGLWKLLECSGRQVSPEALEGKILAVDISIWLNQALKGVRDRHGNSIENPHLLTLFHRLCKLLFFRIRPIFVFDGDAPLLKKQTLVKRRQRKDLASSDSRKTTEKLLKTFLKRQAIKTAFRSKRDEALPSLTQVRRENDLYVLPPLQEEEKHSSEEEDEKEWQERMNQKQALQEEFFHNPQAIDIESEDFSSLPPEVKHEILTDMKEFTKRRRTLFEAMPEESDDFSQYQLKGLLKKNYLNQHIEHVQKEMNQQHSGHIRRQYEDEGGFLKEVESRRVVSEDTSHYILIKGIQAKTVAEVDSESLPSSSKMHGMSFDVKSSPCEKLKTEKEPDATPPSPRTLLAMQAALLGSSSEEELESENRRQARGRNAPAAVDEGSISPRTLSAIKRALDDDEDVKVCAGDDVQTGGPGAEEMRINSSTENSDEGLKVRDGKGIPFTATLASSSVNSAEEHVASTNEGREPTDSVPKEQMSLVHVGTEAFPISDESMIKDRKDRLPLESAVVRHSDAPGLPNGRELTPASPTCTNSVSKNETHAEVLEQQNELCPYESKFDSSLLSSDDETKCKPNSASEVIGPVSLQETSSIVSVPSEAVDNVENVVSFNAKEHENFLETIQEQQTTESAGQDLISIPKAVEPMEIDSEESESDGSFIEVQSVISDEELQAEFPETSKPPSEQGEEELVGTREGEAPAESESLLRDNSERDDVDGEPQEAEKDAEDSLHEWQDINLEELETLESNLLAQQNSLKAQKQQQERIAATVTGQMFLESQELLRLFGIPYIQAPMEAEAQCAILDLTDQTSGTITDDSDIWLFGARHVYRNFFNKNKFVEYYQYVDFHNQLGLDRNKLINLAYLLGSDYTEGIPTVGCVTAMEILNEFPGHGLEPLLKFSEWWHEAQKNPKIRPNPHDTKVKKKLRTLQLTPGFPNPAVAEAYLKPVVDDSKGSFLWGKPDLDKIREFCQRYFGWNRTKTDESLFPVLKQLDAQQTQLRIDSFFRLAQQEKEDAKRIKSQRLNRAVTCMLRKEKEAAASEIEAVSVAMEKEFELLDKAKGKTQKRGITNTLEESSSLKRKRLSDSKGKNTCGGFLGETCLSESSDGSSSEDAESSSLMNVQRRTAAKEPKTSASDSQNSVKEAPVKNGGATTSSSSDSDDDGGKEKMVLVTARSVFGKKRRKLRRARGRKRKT
Method: FEN1, EXO1 or XPG enzyme was incubated with compound or vehicle (DMSO) and the FAM-labeled DNA oligomer substrate in a microtiter plate. The stop buffer contains EDTA to stop the enzymatic reaction. The plate is read for fluorescence intensity. The high control (DMSO) with high fluorescence intensity represents no inhibition of enzymatic reaction while the low control (10 μM) with low fluorescence intensity represents full inhibition of enzymatic reaction.
• FEN1 • hFEN1: 70 pM • Substrate: 100 nM • Reaction time: 20 minutes • EXO1 • hEXO1: 6 nM, Isoforml • Substrate: 30 nM • Reaction time: 60 minutes • XPG • hXPG: 100 nM • Substrate: 100 nM • Reaction time: 120 minutes
Annealing Buffer: 50 mM Tris-HCl, 50 mM NaCl, 1 mM DTT Assay buffer: 50 mM Tris-HCl pH 8.0, 10 mM MgCl2, 0.01% BSA, 1 mM DTT Stop buffer: 50 mM EDTA in assay buffer Temperature: 23° C. Total volume: 40 μl Controls: • 0% inhibition control: DMSO • 100% inhibition control: 10 μM (final) 5-chloro-3-hydroxy-1,3-dihydroquinazoline-2,4-dione Enzyme Reaction and Detection: • 1. Prepare 25 μM intermediate stock of the substrate by diluting SEQ ID NO:1, SEQ ID NO:2, and SEQ ID NO:3 in annealing buffer, in a PCR tube. • 2. Place the PCR tube on a heat block, heat at 95° C. for 3 minutes, then drop in 0.2° C. increments over 2 minutes, stopping at 25° C. • 3. Remove the tube and let the tube cool at room temperature. • 4. Transfer 10 μL of 3× final concentration test compounds or DMSO to the appropriate wells of a microtiter plate. • 5. Transfer 10 μL of 3× final concentration enzyme in assay buffer or assay buffer alone to the appropriate wells. • 6. Incubate the plate at room temperature for 15 minutes. • 7. Transfer 10 μL of 3× substrate in assay buffer to all the test wells. • 8. Incubate the plate at room temperature for prescribed reaction time. • 9. Centrifuge the plate at 1000 rpm for 1 minute. • 10. Transfer 10 μL of stop buffer to all the test wells. • 11. Centrifuge the plate at 1000 rpm for 1 minute. • 12. Read the plate on a plate reader.

Sequence of hFEN1 (P39748 whole entry): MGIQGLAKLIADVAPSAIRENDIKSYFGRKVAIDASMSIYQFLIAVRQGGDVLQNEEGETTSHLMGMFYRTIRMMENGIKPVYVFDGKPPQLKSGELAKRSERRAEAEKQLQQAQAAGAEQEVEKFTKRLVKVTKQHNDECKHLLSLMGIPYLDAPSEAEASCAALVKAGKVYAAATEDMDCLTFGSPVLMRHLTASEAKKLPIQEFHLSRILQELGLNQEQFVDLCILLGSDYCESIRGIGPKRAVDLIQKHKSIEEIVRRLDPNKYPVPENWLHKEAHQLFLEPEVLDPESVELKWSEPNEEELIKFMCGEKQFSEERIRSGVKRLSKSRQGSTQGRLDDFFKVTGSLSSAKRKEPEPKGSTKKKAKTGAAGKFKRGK

IC50 [1] [nM]	IC50 [2] [nM]	IC50 [3] [nM]	SMILES
< 200	250 to 750	750 to 2250	COc1ccc(-n2cc(Cn3c(=O)c(O)c(C(=O)O)c4sccc43)cn2)cc1 [Example 113, 6-hydroxy-4-{[1-(4-methoxyphenyl)-1H-pyrazol-4-yl]methyl}-5-oxo-4,5-dihydrothieno[3,2-b]pyridine-7-carboxylic acid]
< 200	< 200	750 to 2250	CS(=O)(=O)c1cccc(-n2cc(Cn3c(=O)c(O)c(C(=O)O)c4sccc43)cn2)c1 [Example 115, 6-hydroxy-4-({1-[3-(methylsulfonyl)phenyl]-1H-pyrazol-4-yl}methyl)-5-oxo-4,5-dihydrothieno[3,2-b]pyridine-7-carboxylic acid]
< 200	250 to 750	750 to 2250	CS(=O)(=O)c1ccc(-n2cc(Cn3c(=O)c(O)c(C(=O)O)c4sccc43)cn2)cc1 [Example 116, 6-hydroxy-4-({1-[4-(methylsulfonyl)phenyl]-1H-pyrazol-4-yl}methyl)-5-oxo-4,5-dihydrothieno[3,2-b]pyridine-7-carboxylic acid]
< 200	250 to 750	250 to 750	CS(=O)(=O)Nc1ccc(-n2cc(Cn3c(=O)c(O)c(C(=O)O)c4sccc43)cn2)cc1 [Example 117, 6-hydroxy-4-({1-[4-(methylsulfonamido)phenyl]-1H-pyrazol-4-yl}methyl)-5-oxo-4,5-dihydrothieno[3,2-b]pyridine-7-carboxylic acid]
< 200	2250 to 10000	> 10000	O=C(O)c1c(O)c(=O)n(Cc2cnn(Cc3ccccn3)c2)c2ccsc12 [Example 119, 6-hydroxy-5-oxo-4-{[1-(pyridin-2-ylmethyl)-1H-pyrazol-4-yl]methyl}-4,5-dihydrothieno[3,2-b]pyridine-7-carboxylic acid]
< 200	2250 to 10000	2250 to 10000	O=C(O)c1c(O)c(=O)n(Cc2cnn(Cc3cccnc3)c2)c2ccsc12 [Example 120, 6-hydroxy-5-oxo-4-{[1-(pyridin-3-ylmethyl)-1H-pyrazol-4-yl]methyl}-4,5-dihydrothieno[3,2-b]pyridine-7-carboxylic acid]
< 200	2250 to 10000	2250 to 10000	O=C(O)c1c(O)c(=O)n(Cc2cnn(Cc3ccncc3)c2)c2ccsc12 [Example 121, 6-hydroxy-5-oxo-4-{[1-(pyridin-4-ylmethyl)-1H-pyrazol-4-yl]methyl}-4,5-dihydrothieno[3,2-b]pyridine-7-carboxylic acid]
< 200	2250 to 10000	750 to 2250	O=C(O)c1c(O)c(=O)n(Cc2cnn(Cc3ccccc3)c2)c2ccsc12 [Example 122, 4-[(1-benzyl-1H-pyrazol-4-yl)methyl]-6-hydroxy-5-oxo-4,5-dihydrothieno[3,2-b]pyridine-7-carboxylic acid]
< 200	750 to 2250	2250 to 10000	O=C(O)c1c(O)c(=O)n(Cc2cnn(Cc3cn4ccncc4n3)c2)c2ccsc12 [Example 125, 6-hydroxy-4-{[1-(imidazo[1,2-a]pyrazin-2-ylmethyl)-1H-pyrazol-4-yl]methyl}-5-oxo-4,5-dihydrothieno[3,2-b]pyridine-7-carboxylic acid]
< 200	750 to 2250	2250 to 10000	N#Cc1ccc(Cn2cc(Cn3c(=O)c(O)c(C(=O)O)c4sccc43)cn2)cc1 [Example 127, 4-{[1-(4-cyanobenzyl)-1H-pyrazol-4-yl]methyl}-6-hydroxy-5-oxo-4,5-dihydrothieno[3,2-b]pyridine-7-carboxylic acid]
< 200	2250 to 10000	2250 to 10000	N#Cc1cccc(Cn2cc(Cn3c(=O)c(O)c(C(=O)O)c4sccc43)cn2)c1 [Example 128, 4-{[1-(3-cyanobenzyl)-1H-pyrazol-4-yl]methyl}-6-hydroxy-5-oxo-4,5-dihydrothieno[3,2-b]pyridine-7-carboxylic acid]
< 200	2250 to 10000	2250 to 10000	CS(=O)(=O)c1ccc(Cn2cc(Cn3c(=O)c(O)c(C(=O)O)c4sccc43)cn2)cc1 [Example 130, 6-hydroxy-4-({1-[4-(methylsulfonyl)benzyl]-1H-pyrazol-4-yl}methyl)-5-oxo-4,5-dihydrothieno[3,2-b]pyridine-7-carboxylic acid]
< 200	2250 to 10000	2250 to 10000	CS(=O)(=O)c1cccc(Cn2cc(Cn3c(=O)c(O)c(C(=O)O)c4sccc43)cn2)c1 [Example 131, 6-hydroxy-4-({1-[3-(methylsulfonyl)benzyl]-1H-pyrazol-4-yl}methyl)-5-oxo-4,5-dihydrothieno[3,2-b]pyridine-7-carboxylic acid]
< 200	2250 to 10000	2250 to 10000	O=C(O)c1c(O)c(=O)n(Cc2cnn(Cc3ccnnc3)c2)c2ccsc12 [Example 132, 6-hydroxy-5-oxo-4-{[1-(pyridazin-4-ylmethyl)-1H-pyrazol-4-yl]methyl}-4,5-dihydrothieno[3,2-b]pyridine-7-carboxylic acid]
< 200	2250 to 10000	750 to 2250	Cc1cc(C#N)ccc1Cn1cc(Cn2c(=O)c(O)c(C(=O)O)c3sccc32)cn1 [Example 133, 4-{[1-(4-cyano-2-methylbenzyl)-1H-pyrazol-4-yl]methyl}-6-hydroxy-5-oxo-4,5-dihydrothieno[3,2-b]pyridine-7-carboxylic acid]
< 200	2250 to 10000	> 10000	NC(=O)Cn1cc(Cn2c(=O)c(O)c(C(=O)O)c3sccc32)cn1 [Example 136, 4-{[1-(2-amino-2-oxoethyl)-1H-pyrazol-4-yl]methyl}-6-hydroxy-5-oxo-4,5-dihydrothieno[3,2-b]pyridine-7-carboxylic acid]
< 200	2250 to 10000	2250 to 10000	O=C(O)c1c(O)c(=O)n(Cc2cnn(Cc3cn4ncccc4n3)c2)c2ccsc12 [Example 138]
< 200	2250 to 10000	2250 to 10000	O=C(O)c1c(O)c(=O)n(Cc2cnn(Cc3cccc4nonc34)c2)c2ccsc12 [Example 140, 4-{[1-(benzo[c][1,2,5]oxadiazol-4-ylmethyl)-1H-pyrazol-4-yl]methyl}-6-hydroxy-5-oxo-4,5-dihydrothieno[3,2-b]pyridine-7-carboxylic acid]
< 200	750 to 2250	2250 to 10000	O=C(O)c1c(O)c(=O)n(Cc2cnn(Cc3ccc4nonc4c3)c2)c2ccsc12 [Example 141, 4-{[1-(benzo[c][1,2,5]oxadiazol-5-ylmethyl)-1H-pyrazol-4-yl]methyl}-6-hydroxy-5-oxo-4,5-dihydrothieno[3,2-b]pyridine-7-carboxylic acid]
< 200	2250 to 10000	2250 to 10000	Cn1cc(Cn2cc(Cn3c(=O)c(O)c(C(=O)O)c4sccc43)cn2)cn1 [Example 143, 6-hydroxy-4-({1-[(1-methyl-1H-pyrazol-4-yl)methyl]-1H-pyrazol-4-yl}methyl)-5-oxo-4,5-dihydrothieno[3,2-b]pyridine-7-carboxylic acid]
< 200	2250 to 10000	> 10000	O=C(O)c1c(O)c(=O)n(Cc2cnn(Cc3cnc4ccccn34)c2)c2ccsc12 [Example 144, 6-hydroxy-4-{[1-(imidazo[1,2-a]pyridin-3-ylmethyl)-1H-pyrazol-4-yl]methyl}-5-oxo-4,5-dihydrothieno[3,2-b]pyridine-7-carboxylic acid]
< 200	2250 to 10000	750 to 2250	N#Cc1ccc(Cn2cc(Cn3c(=O)c(O)c(C(=O)O)c4sccc43)cn2)c(C(F)(F)F)c1 [Example 146, 4-({1-[4-cyano-2-(trifluoromethyl)benzyl]-1H-pyrazol-4-yl}methyl)-6-hydroxy-5-oxo-4,5-dihydrothieno[3,2-b]pyridine-7-carboxylic acid]

From patent US11584755B2 (IDEAYA BIOSCIENCES, INC., priority 2017, dated 2023)
